In PMC12598851, “Exploiting Avidity Effects for the Discovery of Low Affinity Protein-Binding Fragments” (Journal of Medicinal Chemistry, 2025):
Where “and” joins values, the source holds several entries; their conditions need not be identical. Equal values may be shown once. Entries after “also recorded” stand apart in the source; their conditions may differ. Read-outs that look alike come from different tables or passages of the source.

Legend:
[1] = molecular target: T1, SA-647 (Streptomyces avidinii, UniProt P22629); assay: Dose-dependent binding of SA-647 to bead-displayed ligands by FACS (MFI); conditions: SA-647 0.1 to 1000 nM
T1 construct: purchased ThermoFisher S3235
T1 sequence (P22629 37-163 limits assumed): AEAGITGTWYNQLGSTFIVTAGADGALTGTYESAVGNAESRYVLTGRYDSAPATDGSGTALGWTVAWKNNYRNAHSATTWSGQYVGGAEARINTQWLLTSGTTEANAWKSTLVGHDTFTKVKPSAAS
Method: We next asked if the bead binding assay could distinguish complexes with different affinities for SA. 10 μm TentaGel beads displaying compound 2, compound 3, the oxazole analogue of compound 2 (Figure S4), or the SA-binding macrocycle 1 shown in Figure a were exposed to different concentrations of SA-647 ranging from 0.1 to 1000 nM. After washing, the intensity of fluorescence retained on the beads was measured using a flow cytometer, and the results were plotted as the mean fluorescence intensity (MFI) on the beads vs the protein concentration. […] Macrocycle 1, which binds SA with a K D of about 600 nM in solution (more than 1000 times more tightly than compound 2), binds SA-647 on resin at far lower concentrations than does compound 2.

[2] = molecular target: SA; conditions: in solution; cited from earlier work
[3] = system: SA; assay: Affinity of macrocycle 1 for SA in solution; type: binding; conditions: KD in solution against KD of compound 2
[4] = molecular target: T2, Streptavidin (SA) (Streptomyces avidinii, UniProt P22629); assay: SPR, soluble compound binding to immobilized streptavidin
T2 construct: purchased
T2 sequence (P22629 25-183, species assumed): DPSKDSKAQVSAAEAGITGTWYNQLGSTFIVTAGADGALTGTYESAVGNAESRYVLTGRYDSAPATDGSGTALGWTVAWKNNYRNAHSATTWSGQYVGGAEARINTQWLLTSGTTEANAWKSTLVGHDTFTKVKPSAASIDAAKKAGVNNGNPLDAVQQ
Method: The SPR binding affinity testing was conducted using the BIAcore 1K system (Cytiva) with BIAcore Insight Control Software. Streptavidin (50 μg/mL in 10 mM pH 5.0 NaOAc) was immobilized on a CM5 sensor chip (Cytiva) via amide coupling, using HBS-EP+ (10 mM HEPES, 150 mM NaCl, 3 mM EDTA, and 0.05% v/v Surfactant P20) as the immobilization buffer. Approximately 1000 RU of immobilization was achieved. Testing compounds were evaluated using the multiple-cycle kinetic/affinity method in PBS-P+ running buffer (20 mM phosphate buffer, 2.7 mM KCl, 137 mM NaCl, and 0.05% Surfactant P20), with a 200 s association time, 200 s dissociation time, and a flow rate of 45 μL/min. Binding affinities for the testing compounds were determined by fitting the sensor grams to both the 1:1 binding kinetics and steady-state affinity models provided in the BIAcore Insight Evaluation Software.

[5] = molecular target: T3, tetrameric streptavidin (SA-647) (Streptomyces avidinii, UniProt P22629); assay: Bead pull-down: SA-647 retained by compound-displaying TentaGel beads, plate reader; type: binding; conditions: SA-647 (100 nM), plate reader
T3 construct: purchased ThermoFisher S3235
T3 sequence (P22629 37-163 limits assumed): as the sequence (P22629 37-163 limits assumed) above

[6] = molecular target: T4, Rpn13 PRU (Homo sapiens, UniProt Q16186); assay: SPR, soluble compound binding to biotinylated Rpn13 PRU captured on SA chip
T4 construct: FLAG (N); His10 (C); made in house; host or cells: E. coli BL21 (DE3) codon plus RP
T4 sequence (Q16186 18-131 limits assumed): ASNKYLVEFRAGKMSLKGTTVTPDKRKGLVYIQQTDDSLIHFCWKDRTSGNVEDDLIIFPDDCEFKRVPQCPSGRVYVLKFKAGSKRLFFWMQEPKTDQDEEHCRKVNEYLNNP
Method: 4000–5000 Ru of Biotinylated Rpn13-PRU (50 μg/mL in running buffer (20 mM phosphate buffer with 2.7 mM KCl, 137 mM NaCl, 0.05% Surfactant P20, 1 mM DTT and 1 mM EDTA)) was captured on a SA sensor chip (Cytiva). Testing compounds were evaluated using the multiple-cycle kinetic/affinity method in running buffer with indicated association and dissociation time, and a flow rate of 40 μL/min. Data was analyzed with the BIAcore Insight Evaluation Software and the binding affinities were obtained by fitting the sensor grams to the 1:1 binding kinetics, steady-state affinity models or steady-state affinity model with constant R max.

[7] = molecular target: T5, Rpn2-binding surface of Rpn13 (GST-Rpn13 PRU) (Homo sapiens, UniProt Q16186); assay: Competition assay with Rpn2 peptide for GST-Rpn13 PRU fusion protein; conditions: protein preincubated with Rpn2 peptide 100 μM
T5 construct: the human Rpn13 PRU (pleckstrin-like receptor for ubiquitin) domain is linked to the C-terminus of GST; His6 (C); made in house; host or cells: E. coli BL21 (DE3) codon plus RP
T5 sequence (Q16186 18-131 limits assumed): as above
Method: As mentioned above, the Rpn13 PRU domain binds to the proteasome via association with a C-terminal peptide tail from Rpn2. […] The amount of protein retained on the resin was then evaluated using the same protocol described above.
This assay was conducted following the exact same procedure described above using two samples: GST-Rpn13 PRU (100 nM) alone, and GST-Rpn13 PRU (100 nM) that had been pretreated with Rpn2 peptide (100 μM) for 1 h at 4 °C. Each sample was added to separate wells of a microtiter plate.

[8] = molecular target: T6, GST-Rpn13 PRU fusion protein (UniProt P08515+Q16186); assay: Bead-displayed fragment screen against GST-Rpn13 PRU fusion protein; type: binding, human; conditions: GST-Rpn13 PRU 500 nM, A647 anti-FLAG antibody staining
T6 construct: the human Rpn13 PRU (pleckstrin-like receptor for ubiquitin) domain is linked to the C-terminus of GST; His6 (C); made in house; host or cells: E. coli BL21 (DE3) codon plus RP
T6 sequence (P08515+Q16186 fused): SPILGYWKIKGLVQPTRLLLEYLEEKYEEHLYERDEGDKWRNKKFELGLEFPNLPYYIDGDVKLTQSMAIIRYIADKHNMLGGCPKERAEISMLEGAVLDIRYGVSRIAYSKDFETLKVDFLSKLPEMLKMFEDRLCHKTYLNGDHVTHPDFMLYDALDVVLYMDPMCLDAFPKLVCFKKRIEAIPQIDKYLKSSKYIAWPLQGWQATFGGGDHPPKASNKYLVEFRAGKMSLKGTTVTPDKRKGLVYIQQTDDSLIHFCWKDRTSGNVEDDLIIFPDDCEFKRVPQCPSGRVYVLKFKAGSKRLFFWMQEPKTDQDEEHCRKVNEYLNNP
Method: The beads (one compound per well) were then incubated with GST-Rpn13 PRU fusion protein (500 nM) and, after washing, the amount of protein retained on the beads was measured after staining with Alexafluor-647 (A647)-labeled anti-FLAG antibody using a plate reader (Figure a). […] Next a competition experiment was performed in which the GST-Rpn13 PRU fusion protein was preincubated with excess glutathione (1 mM) to determine if the fragments, to some extent, engage the peptide-binding site of GST. […] We speculate that A8 and A88 probably bind to both GST and Rpn13, explaining the high signal in the original screen (Figure b). Finally, all five hit-displaying beads were incubated with only Alexa Fluor 647–labeled anti-FLAG antibody to confirm that the hits are not antibody binders (Figure S11).
General notes: • At each step, contents were mixed by pipetting up and down 3–5 times. • All steps following the addition of Alexa Fluor 647 anti-FLAG Tag Antibody were conducted in the dark. • Alexa Fluor 647 anti-FLAG Tag Antibody was purchased from commercial sources; (BioLengend cat #637316). […]
Each sample was transferred to a black 384-well plate in triplicate (3 × 20 μL per well). […] Fluorescence intensity was measured using a TECAN plate reader. Background fluorescence (from blank wells) was subtracted before further data analysis.

[9] = system: monomeric streptavidin (mSA-647); assay: Bead pull-down with monomeric streptavidin; type: binding; conditions: mSA-647 500 nM, 1 h, PBST, room temperature
Method: To investigate this, compound 2-displaying, compound 3-displaying, or blank (acetylated) beads were incubated with tetrameric SA-647 or iFluor647-conjugated monomeric streptavidin (mSA-647). Biotin-displaying beads (Figure S3) were also included in this experiment as a high-affinity comparator. […] No binding of either protein to compound 3-displaying beads was observed.
3 Stable binding of tetrameric SA to beads displaying compound 2 is highly dependent on avidity. […] Each compound was represented by 1 million 10 μm TentaGel beads, with 250,000 beads used per technical replicate. (b) Effect of ligand functionalization density on compound binding. Beads were functionalized with compound 2, compound 3, or biotin at varying surface densities (100% to 5%) and incubated with SA-647 (500 nM) for 1 h in PBST at room temperature as previously, before recording the fluorescence intensity.
(§1) General notes: • At each step, contents were mixed by pipetting up and down 3–5 times. • All steps following the addition of SA-647 were conducted in the dark. • SA-647 and mSA-647 were purchased from commercial sources; (SA-647: ThermoFisher cat#S3235, mSA-647: Millipore SAE178).

[10] = molecular target: T3, tetrameric streptavidin (SA-647); assay: Bead pull-down: SA-647 retained by compound-displaying TentaGel beads, plate reader; type: binding; conditions: SA-647 500 nM
From the text: Compounds 2 and 3 were then constructed on 10 μm TentaGel beads via straightforward solid-phase synthesis, along with acetylated beads, which as a “blank” (Figure c). TentaGel beads consist of an amino-polystyrene core onto which is grafted a thick layer of amine-terminated PEG chains. An additional mini-PEG spacer was incorporated prior to coupling the compounds to further improve spatial accessibility and aqueous display of the compounds (see Experimental Section for detailed synthesis). The beads were incubated with AlexaFluor 647-conjugated SA (SA-647) in phosphate-buffered saline supplemented with 0.05% Tween 20 (PBST) for 1 h at room temperature in the dark. Following incubation, the beads were washed thoroughly (see Experimental Section for a detailed protocol), then resuspended in PBST. The amount of fluorescent SA retained by the resin was analyzed using a Tecan multiwell plate reader equipped with appropriate excitation and emission filters (excitation at 650 nm, emission at 665 nm).
as §1
A 96-well Multiscreen hydrophilic assay plate (MilliporeSigma, MSBVN12) was activated by treating each well with 150 μL of 70% (v/v) ethanol in water. The solvent was removed under vacuum, and the wells were washed with PBST (3 × 150 μL). Fresh PBST (150 μL) was then added to each well.
The plate was drained and washed again with PBST (3 × 150 μL), followed by the addition of 150 μL PBST per well. Plates were shaken overnight at ambient temperature on an orbital plate shaker.
The next day, wells were drained and incubated with 150 μL of a 1:1 (v/v) solution of PBST:PBS blocking buffer (Thermo Scientific, 37538) for 1 h at room temperature. After removal of the blocking buffer, 100 μL PBST was added to each well and mixed thoroughly. A 20 μL aliquot from each well was transferred to a black 384-well flat-bottom plate (Corning, 3820) for background (blank) measurements.
The remaining PBST was removed, and the beads were incubated with SA-647 (500 nM in 1:1 PBST/blocking buffer, 150 μL per well) for 1 h at room temperature. After incubation, wells were washed with PBST while shaking (3 × 20 min). A final 150 μL PBST wash was performed and drained. Fresh PBST (80 μL) was added to each well, and the contents were transferred to labeled PCR tubes. Samples were briefly vortexed and mixed by pipetting.
Each sample was transferred to a black 384-well plate in triplicate (3 × 20 μL per well). The plate was sealed with a foil sticker and centrifuged at 250g for 1 min. Fluorescence intensity was measured using a TECAN plate reader. Background fluorescence (from blank wells) was subtracted prior to further data analysis.

[11] = soluble mini-PEG attached compound, immobilized SA, read-out: KD (SPR)

Structure (SMILES): NC(=O)[C@H]1CSCc2cccc(c2)C(=O)N(Cc2cccnc2)Cc2nc(cs2)C(=O)N(Cc2ccc(F)c(F)c2)Cc2nc(co2)C(=O)N1 [Compound 1]
- dose-dependent binding of SA-647 (MFI by flow cytometer) [1]: dose-dependent binding
- Kd [2]: ~0.6 µM
- tighter binding to SA than compound 2 [3]: more than 1000 times

Structure (SMILES): CN(CC(=O)NCCOCCOCC(=O)NCC(N)=O)C(=O)c1csc(CN(Cc2cccnc2)C(=O)c2ccc(F)c(C#N)c2)n1 [Compound 5]
- Kd ([4]; supplementary CSV, solution dissociation constants, read-out: KD for SA): 160 µM

Structure (SMILES): CN(CC(=O)NCCOCCOCC(=O)NCC(N)=O)C(=O)c1csc(CN(Cc2cccnc2)C(=O)c2ccc(F)c(F)c2)n1 [Compound 6]
- Kd [4, 11]: 330 µM
- SA-647 retained by bead-displayed grown compound relative to parent compound 2 [5]: captured less SA-647 than bead-displayed 4 but more than bead-displayed 2

Structure (SMILES): NC(=O)CNC(=O)COCCOCCNC(=O)CNC(=O)c1cnc2[nH]ccc2c1 [A85]
- Kd ([6]; soluble compound, biotinylated Rpn13 PRU immobilized on SA chip, read-out: KD (SPR)): > 2000 µM
- effect of soluble Rpn2 peptide competitor on binding of GST-Rpn13 PRU [7]: strongly suppressed binding
- fluorescence intensity in GST-Rpn13 PRU screen [8]: above-background fluorescence

Structure (SMILES): CN(CC(=O)NCCOCCOCC(=O)NCC(N)=O)C(=O)c1csc(CN(Cc2cccnc2)C(=O)C2CCC(=O)C2)n1 (centres unmarked) [Compound 4]
- improvement of KD over the parent compound 2 ([4]; SPR, immobilized SA): 7.8 fold
- Kd [4, 11]: 90 µM
- SA-647 retained by bead-displayed grown compound relative to parent compound 2 [5]: retained the most SA-647

Structure (SMILES): O=C(O)CCCC[C@@H]1SC[C@@H]2NC(=O)N[C@@H]21 [biotin, reference compound]
- binding of mSA-647 to bead-displayed ligand [9]: readily observable
- dependence of SA-647 retention on ligand density ([10]; site functionalization 100% to 5%): insensitive to ligand density

Structure (SMILES): CC(=O)N(Cc1ccccc1)Cc1nc(C(=O)N(C)CC(=O)NCCOCCOCC(=O)NCC(N)=O)cs1 [Compound 3]
- dose-dependent binding of SA-647 (MFI by flow cytometer) [1]: not
- binding of mSA-647 to bead-displayed ligand [9]: No binding
- binding to SA by SPR (in words) ([4]; soluble compound, immobilized SA): no detectable binding
- Fluorescence intensity, Average ([10]; 12 replicates, after background subtraction, Z' calculation): 177
- binding of SA-647 to bead-displayed compound (fluorescence) ([10]; 1 h, PBST, room temperature, after washing): failed to retain more labeled SA than the acetylated “blank” beads; also recorded: No binding
- Fluorescence intensity, individual replicate ([10]; replicates 1-12, after background subtraction, Z' calculation): 76 and 119 and 260 and 226 and 50 and 156 and 122 and 81 and 136 and 180 and 145 and 568

Structure (SMILES): NC(=O)CNC(=O)COCCOCCNC(=O)CNC(=O)c1ccc2nc(-c3ccncc3)[nH]c2c1 [A63]
- KD (SPR) ([6]; soluble compound, biotinylated Rpn13 PRU immobilized on SA chip): A similar result
- Kd ([6]; supplementary CSV, solution dissociation constants, read-out: KD for Rpn13 PRU): > 2000 µM
- effect of soluble Rpn2 peptide competitor on binding of GST-Rpn13 PRU [7]: strongly suppressed binding
- fluorescence intensity in GST-Rpn13 PRU screen [8]: above-background fluorescence

Structure (SMILES): CN(CC(=O)NCCOCCOCC(=O)NCC(N)=O)C(=O)c1csc(CN(Cc2cccnc2)C(=O)c2ccc3[nH]ccc3c2)n1 [Compound 7]
- Kd [4, 11]: 780 µM
- SA-647 retained by bead-displayed grown compound relative to parent compound 2 [5]: retained less SA-647 than compound 2
